From the supplement of paper PMC10307832

Legend:
Assay in all cases: relative viability (nuclei count vs DMSO), 5 days (fraction); higher = more cells survive
AZ628 + Crizotinib = compound: CC1=C(C=C(C=C1)NC(=O)C2=CC(=CC=C2)C(C)(C)C#N)NC3=CC4=C(C=C3)N=CN(C4=O)C [AZ628] + C[C@@H](Oc1cc(-c2cnn(C3CCNCC3)c2)cnc1N)c1c(Cl)ccc(F)c1Cl [Crizotinib] (partner 1 µM)
Procedure, shortened: (§1)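 Relative viability divides the nuclei count in treated wells by that in vehicle wells. Lung cancer cell lines were seeded in 1536-well plates, dosed by pin tool the next day, and fixed and stained after 5 days in one step with final 0.05% Triton X-100, 1% formaldehyde and 1 ug/ml Hoechst. Dosing was a single drug or a fixed anchor-drug dose plus five library-drug doses (not always all listed) in √10 steps, and values are medians of duplicate plates imaged at 4×.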

[1] = compound: C[As](C)SC[C@H](NC(=O)CC[C@H](N)C(=O)O)C(=O)NCC(=O)O [Darinaparsin] + Nc1nc2[nH]cc(CCc3ccc(C(=O)N[C@@H](CCC(=O)O)C(=O)O)cc3)c2c(=O)[nH]1 [Pemetrexed] (partner 0.2 µM)
Procedure, shortened: as §1

[2] = compound: C[As](C)SC[C@H](NC(=O)CC[C@H](N)C(=O)O)C(=O)NCC(=O)O [Darinaparsin] + C[C@@H](Oc1cc(-c2cnn(C3CCNCC3)c2)cnc1N)c1c(Cl)ccc(F)c1Cl [Crizotinib] (partner 1 µM)
Procedure, shortened: as §1

[3] = compound: C[As](C)SC[C@H](NC(=O)CC[C@H](N)C(=O)O)C(=O)NCC(=O)O [Darinaparsin] + CCNC(=O)c1noc(-c2cc(C(C)C)c(O)cc2O)c1-c1ccc(CN2CCOCC2)cc1 [Luminespib] (partner 0.01 µM)
Procedure, shortened: as §1

## NCI-H838
AZ628 + Crizotinib; first compound 0.08 µM
  relative viability: 0.84
AZ628 + Crizotinib; first compound 0.253 µM
  relative viability: 0.842
AZ628 + Crizotinib; first compound 0.8 µM
  relative viability: 0.719
AZ628 + Crizotinib; first compound 2.53 µM
  relative viability: 0.747
AZ628 + Crizotinib; first compound 8 µM
  relative viability: 0.655
[1]; first compound 0.08 µM
  relative viability: 0.272
[1]; first compound 0.8 µM
  relative viability: 0.223
[1]; first compound 2.53 µM
  relative viability: 0.245
[1]; first compound 8 µM
  relative viability: 0.247
[2]; first compound 0.08 µM
  relative viability: 0.996
[2]; first compound 0.8 µM
  relative viability: 0.803
[2]; first compound 2.53 µM
  relative viability: 0.776
[2]; first compound 8 µM
  relative viability: 0.976
[3]; first compound 0.08 µM
  relative viability: 0.29
[3]; first compound 0.8 µM
  relative viability: 0.265
[3]; first compound 2.53 µM
  relative viability: 0.284
[3]; first compound 8 µM
  relative viability: 0.283

## NCI-H1355
AZ628 + Crizotinib; first compound 0.08 µM
  relative viability: 1.04
AZ628 + Crizotinib; first compound 0.253 µM
  relative viability: 1.05
AZ628 + Crizotinib; first compound 0.8 µM
  relative viability: 0.971
AZ628 + Crizotinib; first compound 2.53 µM
  relative viability: 0.89
AZ628 + Crizotinib; first compound 8 µM
  relative viability: 0.768
[1]; first compound 0.08 µM
  relative viability: 1.16
[1]; first compound 0.8 µM
  relative viability: 1.08
[1]; first compound 2.53 µM
  relative viability: 0.906
[1]; first compound 8 µM
  relative viability: 1.07
[2]; first compound 0.08 µM
  relative viability: 1.13
[2]; first compound 0.8 µM
  relative viability: 1.06
[2]; first compound 2.53 µM
  relative viability: 0.852
[2]; first compound 8 µM
  relative viability: 1.18
[3]; first compound 0.08 µM
  relative viability: 0.702
[3]; first compound 0.8 µM
  relative viability: 0.725
[3]; first compound 2.53 µM
  relative viability: 0.559
[3]; first compound 8 µM
  relative viability: 0.568

## NCI-H1437
AZ628 + Crizotinib; first compound 0.08 µM
  relative viability: 0.869
AZ628 + Crizotinib; first compound 0.253 µM
  relative viability: 0.822
AZ628 + Crizotinib; first compound 0.8 µM
  relative viability: 0.899
AZ628 + Crizotinib; first compound 2.53 µM
  relative viability: 0.995
AZ628 + Crizotinib; first compound 8 µM
  relative viability: 0.932
[1]; first compound 0.08 µM
  relative viability: 0.34
[1]; first compound 0.8 µM
  relative viability: 0.371
[1]; first compound 2.53 µM
  relative viability: 0.301
[1]; first compound 8 µM
  relative viability: 0.329
[2]; first compound 0.08 µM
  relative viability: 1.23
[2]; first compound 0.8 µM
  relative viability: 0.865
[2]; first compound 2.53 µM
  relative viability: 0.716
[2]; first compound 8 µM
  relative viability: 1.32
[3]; first compound 0.08 µM
  relative viability: 1.32
[3]; first compound 0.8 µM
  relative viability: 1.21
[3]; first compound 2.53 µM
  relative viability: 1.08
[3]; first compound 8 µM
  relative viability: 1.36

## NCI-H1563
AZ628 + Crizotinib; first compound 0.08 µM
  relative viability: 0.892
AZ628 + Crizotinib; first compound 0.253 µM
  relative viability: 0.825
AZ628 + Crizotinib; first compound 0.8 µM
  relative viability: 0.872
AZ628 + Crizotinib; first compound 2.53 µM
  relative viability: 0.833
AZ628 + Crizotinib; first compound 8 µM
  relative viability: 0.938
[1]; first compound 0.08 µM
  relative viability: 0.761
[1]; first compound 0.8 µM
  relative viability: 0.765
[1]; first compound 2.53 µM
  relative viability: 0.669
[1]; first compound 8 µM
  relative viability: 0.866
[2]; first compound 0.08 µM
  relative viability: 0.903
[2]; first compound 0.8 µM
  relative viability: 0.768
[2]; first compound 2.53 µM
  relative viability: 0.87
[2]; first compound 8 µM
  relative viability: 0.874
[3]; first compound 0.08 µM
  relative viability: 0.588
[3]; first compound 0.8 µM
  relative viability: 0.429
[3]; first compound 2.53 µM
  relative viability: 0.495
[3]; first compound 8 µM
  relative viability: 0.473

## NCI-H1650
AZ628 + Crizotinib; first compound 0.08 µM
  relative viability: 1.13
AZ628 + Crizotinib; first compound 0.253 µM
  relative viability: 0.965
AZ628 + Crizotinib; first compound 0.8 µM
  relative viability: 0.998
AZ628 + Crizotinib; first compound 2.53 µM
  relative viability: 0.984
AZ628 + Crizotinib; first compound 8 µM
  relative viability: 0.841
[1]; first compound 0.08 µM
  relative viability: 0.426
[1]; first compound 0.8 µM
  relative viability: 0.369
[1]; first compound 2.53 µM
  relative viability: 0.342
[1]; first compound 8 µM
  relative viability: 0.396
[2]; first compound 0.08 µM
  relative viability: 1.14
[2]; first compound 0.8 µM
  relative viability: 0.98
[2]; first compound 2.53 µM
  relative viability: 0.795
[2]; first compound 8 µM
  relative viability: 1.17
[3]; first compound 0.08 µM
  relative viability: 0.238
[3]; first compound 0.8 µM
  relative viability: 0.214
[3]; first compound 2.53 µM
  relative viability: 0.187
[3]; first compound 8 µM
  relative viability: 0.173

## NCI-H1651
AZ628 + Crizotinib; first compound 0.08 µM
  relative viability: 0.864
AZ628 + Crizotinib; first compound 0.253 µM
  relative viability: 0.87
AZ628 + Crizotinib; first compound 0.8 µM
  relative viability: 0.863
AZ628 + Crizotinib; first compound 2.53 µM
  relative viability: 0.902
AZ628 + Crizotinib; first compound 8 µM
  relative viability: 0.925
[1]; first compound 0.08 µM
  relative viability: 0.621
[1]; first compound 0.8 µM
  relative viability: 0.594
[1]; first compound 2.53 µM
  relative viability: 0.569
[1]; first compound 8 µM
  relative viability: 0.748
[2]; first compound 0.08 µM
  relative viability: 0.87
[2]; first compound 0.8 µM
  relative viability: 0.895
[2]; first compound 2.53 µM
  relative viability: 0.845
[2]; first compound 8 µM
  relative viability: 1.07
[3]; first compound 0.08 µM
  relative viability: 0.886
[3]; first compound 0.8 µM
  relative viability: 0.831
[3]; first compound 2.53 µM
  relative viability: 0.926
[3]; first compound 8 µM
  relative viability: 1.16

## NCI-H1666
AZ628 + Crizotinib; first compound 0.08 µM
  relative viability: 1.09
AZ628 + Crizotinib; first compound 0.253 µM
  relative viability: 0.901
AZ628 + Crizotinib; first compound 0.8 µM
  relative viability: 0.819
AZ628 + Crizotinib; first compound 2.53 µM
  relative viability: 0.761
AZ628 + Crizotinib; first compound 8 µM
  relative viability: 0.632
[1]; first compound 0.08 µM
  relative viability: 0.91
[1]; first compound 0.8 µM
  relative viability: 0.854
[1]; first compound 2.53 µM
  relative viability: 0.984
[1]; first compound 8 µM
  relative viability: 0.955
[2]; first compound 0.08 µM
  relative viability: 0.904
[2]; first compound 0.8 µM
  relative viability: 0.927
[2]; first compound 2.53 µM
  relative viability: 1.02
[2]; first compound 8 µM
  relative viability: 1.14
[3]; first compound 0.08 µM
  relative viability: 1.05
[3]; first compound 0.8 µM
  relative viability: 0.897
[3]; first compound 2.53 µM
  relative viability: 1.24
[3]; first compound 8 µM
  relative viability: 1.07

## NCI-H1734
AZ628 + Crizotinib; first compound 0.08 µM
  relative viability: 0.561
AZ628 + Crizotinib; first compound 0.253 µM
  relative viability: 0.574
AZ628 + Crizotinib; first compound 0.8 µM
  relative viability: 0.568
AZ628 + Crizotinib; first compound 2.53 µM
  relative viability: 0.621
AZ628 + Crizotinib; first compound 8 µM
  relative viability: 0.381
[1]; first compound 0.08 µM
  relative viability: 0.421
[1]; first compound 0.8 µM
  relative viability: 0.389
[1]; first compound 2.53 µM
  relative viability: 0.442
[1]; first compound 8 µM
  relative viability: 0.466
[2]; first compound 0.08 µM
  relative viability: 0.892
[2]; first compound 0.8 µM
  relative viability: 0.724
[2]; first compound 2.53 µM
  relative viability: 0.686
[2]; first compound 8 µM
  relative viability: 0.736
[3]; first compound 0.08 µM
  relative viability: 0.201
[3]; first compound 0.8 µM
  relative viability: 0.16
[3]; first compound 2.53 µM
  relative viability: 0.2
[3]; first compound 8 µM
  relative viability: 0.19

## NCI-H1755
AZ628 + Crizotinib; first compound 0.08 µM
  relative viability: 0.809
AZ628 + Crizotinib; first compound 0.253 µM
  relative viability: 0.818
AZ628 + Crizotinib; first compound 0.8 µM
  relative viability: 0.786
AZ628 + Crizotinib; first compound 2.53 µM
  relative viability: 0.811
AZ628 + Crizotinib; first compound 8 µM
  relative viability: 0.769
[1]; first compound 0.08 µM
  relative viability: 0.552
[1]; first compound 0.8 µM
  relative viability: 0.389
[1]; first compound 2.53 µM
  relative viability: 0.411
[1]; first compound 8 µM
  relative viability: 0.656
[2]; first compound 0.08 µM
  relative viability: 1.08
[2]; first compound 0.8 µM
  relative viability: 0.827
[2]; first compound 2.53 µM
  relative viability: 0.807
[2]; first compound 8 µM
  relative viability: 1.12
[3]; first compound 0.08 µM
  relative viability: 0.491
[3]; first compound 0.8 µM
  relative viability: 0.393
[3]; first compound 2.53 µM
  relative viability: 0.411
[3]; first compound 8 µM
  relative viability: 0.57
